Measured values: PMC4579270, “Identification and Characterization of an Irreversible Inhibitor of CDK2” (Chemistry & Biology, 2015)

Tests used:
Assay in all cases: Dundee protein kinase screen
Type in all cases: biochemical
[1] = target: TIE2 (Homo sapiens, UniProt Q02763); settings: TIE2, 1µM; read-out: %Remaining activity at 1µM NU6300
Procedure: (§1) Prior to determining its cellular activity, we carried out a screen to assess its selectivity against a panel of 131 protein kinases under conditions that would not distinguish between a reversible or irreversible mode of action. […] These 13 kinases and 29 additional kinases, selected for their known sensitivity to other inhibitors within the purine series, were then tested in a modified screening format in which the assay was repeated following a 4-hr pre-incubation (Table S3B). […] However, conformational flexibility around the active site may promote such an interaction with a residue from another part of the structure ([Martin et al., 2012]).
(§2) Table S3, Related to Figure 4. NCL-0006300 protein kinase selectivity. (A) NU6300 was tested at a single concentration of 1µM against 131 protein kinases present in a Dundee protein kinase screen (Bain et al., 2007). Values given are % activity remaining and are the average of duplicate measurements: 0-25% (red), 26-50% (yellow), 51-80% (black) and above 81% (green). The kinase domain sequences (as defined by UniProt) of […]
(§3) have a lysine residue at a position close to CDK2 Lys88 or Lys89. However, in the structure of tyrosine-protein kinase BTK (PDB ID: 3GEN) the residue equivalent to CDK2 Asp86 is Cys481 and therefore there is the potential for a covalent adduct to be formed through this side chain. Ephrin type-B receptor 3 (UniProt entry P54753) also encodes a cysteine residue (Cys717) that by sequence alignment would be predicted to be close to the CDK2 lysine pair. (B) Selected kinases were re-tested in the Dundee kinase screen against NU6300 at a single concentration of 0.5 µM both in the standard assay format and following a 4 hour pre-incubation in the presence of NU6300. Kinases which have very low activity after the 4 hour incubation so that results might not be wholly reliable are boxed in salmon. Kinases where the activity after a 4 hour pre-incubation is < 50% that in the standard assay format are highlighted in red.

[2] = target: T1, ASK1 (Homo sapiens, UniProt Q99683); settings: ASK1, 1µM; read-out: %Remaining activity at 1µM NU6300
T1 sequence (Q99683 1-1374): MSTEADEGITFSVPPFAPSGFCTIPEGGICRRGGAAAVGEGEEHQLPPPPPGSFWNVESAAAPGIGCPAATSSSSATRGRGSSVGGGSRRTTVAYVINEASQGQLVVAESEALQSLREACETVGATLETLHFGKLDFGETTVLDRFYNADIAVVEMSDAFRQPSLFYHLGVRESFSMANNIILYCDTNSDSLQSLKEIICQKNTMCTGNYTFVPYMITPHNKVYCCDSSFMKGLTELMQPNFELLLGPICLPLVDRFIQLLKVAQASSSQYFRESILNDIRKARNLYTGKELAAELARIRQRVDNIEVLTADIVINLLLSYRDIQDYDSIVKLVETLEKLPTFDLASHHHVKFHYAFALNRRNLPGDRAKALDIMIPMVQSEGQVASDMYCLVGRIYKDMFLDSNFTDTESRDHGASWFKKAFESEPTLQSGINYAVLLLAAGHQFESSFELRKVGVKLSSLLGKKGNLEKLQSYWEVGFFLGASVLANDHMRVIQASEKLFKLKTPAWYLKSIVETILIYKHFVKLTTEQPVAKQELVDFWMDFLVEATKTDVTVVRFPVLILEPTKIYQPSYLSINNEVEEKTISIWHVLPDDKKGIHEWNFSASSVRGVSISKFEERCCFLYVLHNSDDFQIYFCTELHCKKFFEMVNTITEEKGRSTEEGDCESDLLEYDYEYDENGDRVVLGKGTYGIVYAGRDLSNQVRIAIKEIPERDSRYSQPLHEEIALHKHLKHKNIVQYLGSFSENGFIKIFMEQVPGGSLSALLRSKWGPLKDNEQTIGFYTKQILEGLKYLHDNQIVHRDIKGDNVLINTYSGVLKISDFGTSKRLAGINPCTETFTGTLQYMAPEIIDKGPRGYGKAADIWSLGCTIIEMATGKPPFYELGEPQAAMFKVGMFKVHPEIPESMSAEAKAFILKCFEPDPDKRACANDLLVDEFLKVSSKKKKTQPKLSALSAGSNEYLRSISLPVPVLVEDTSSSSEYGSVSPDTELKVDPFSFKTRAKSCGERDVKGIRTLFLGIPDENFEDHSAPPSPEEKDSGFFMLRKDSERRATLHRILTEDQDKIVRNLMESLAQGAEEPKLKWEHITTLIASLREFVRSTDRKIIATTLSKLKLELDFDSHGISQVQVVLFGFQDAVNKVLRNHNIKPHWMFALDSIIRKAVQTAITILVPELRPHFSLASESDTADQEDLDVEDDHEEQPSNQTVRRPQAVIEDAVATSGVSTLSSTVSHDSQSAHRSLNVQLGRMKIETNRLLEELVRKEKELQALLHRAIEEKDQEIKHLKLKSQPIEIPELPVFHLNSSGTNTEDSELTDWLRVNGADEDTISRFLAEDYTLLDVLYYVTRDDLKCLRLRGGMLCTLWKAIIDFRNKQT
Procedure: as §1, §2, §3

[3] = target: ERK1 (Homo sapiens, UniProt P27361); settings: ERK1, 1µM; read-out: %Remaining activity at 1µM NU6300
Procedure: as §1, §2, §3

[4] = target: HIPK2 (Homo sapiens, UniProt Q9H2X6); settings: HIPK2, 1µM; read-out: %Remaining activity at 1µM NU6300
Procedure: as §1, §2, §3

[5] = target: IR (Homo sapiens, UniProt P06213); settings: read-out: %Remaining activity at 1µM NU6300
Procedure: as §1, §2, §3

[6] = target: p38δ MAPK (Homo sapiens, UniProt O15264); settings: read-out: %Remaining activity at 1µM NU6300
Procedure: as §1, §2, §3

[7] = target: PAK4 (Homo sapiens, UniProt O96013); settings: PAK4, 1µM; read-out: %Remaining activity at 1µM NU6300
Procedure: as §1, §2, §3

[8] = target: RIPK2 (Homo sapiens, UniProt O43353); settings: RIPK2, 1µM; read-out: %Remaining activity at 1µM NU6300
Procedure: as §1, §2, §3

[9] = target: PIM3 (Homo sapiens, UniProt Q86V86); settings: PIM3, 1µM; read-out: %Remaining activity at 1µM NU6300
Procedure: as §1, §2, §3

[10] = target: HER4 (Homo sapiens, UniProt Q15303); settings: HER4, 1µM; read-out: %Remaining activity at 1µM NU6300
Procedure: as §1, §2, §3

PAK4, sequence (O96013 whole entry): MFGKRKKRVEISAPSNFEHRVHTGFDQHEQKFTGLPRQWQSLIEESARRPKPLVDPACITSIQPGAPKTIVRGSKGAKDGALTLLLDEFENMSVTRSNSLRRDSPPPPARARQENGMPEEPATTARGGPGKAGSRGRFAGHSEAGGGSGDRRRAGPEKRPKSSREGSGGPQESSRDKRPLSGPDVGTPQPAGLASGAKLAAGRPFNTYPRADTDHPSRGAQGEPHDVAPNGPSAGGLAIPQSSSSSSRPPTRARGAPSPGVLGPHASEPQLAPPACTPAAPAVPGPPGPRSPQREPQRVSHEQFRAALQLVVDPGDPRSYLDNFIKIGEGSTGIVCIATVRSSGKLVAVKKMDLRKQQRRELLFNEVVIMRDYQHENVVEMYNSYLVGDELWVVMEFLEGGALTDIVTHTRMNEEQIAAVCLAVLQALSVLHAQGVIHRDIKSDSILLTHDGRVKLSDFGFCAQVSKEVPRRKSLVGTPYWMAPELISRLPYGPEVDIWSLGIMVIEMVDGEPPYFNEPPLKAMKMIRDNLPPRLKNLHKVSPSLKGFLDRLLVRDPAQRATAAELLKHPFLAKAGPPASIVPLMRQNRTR
HIPK2, sequence (Q9H2X6 whole entry): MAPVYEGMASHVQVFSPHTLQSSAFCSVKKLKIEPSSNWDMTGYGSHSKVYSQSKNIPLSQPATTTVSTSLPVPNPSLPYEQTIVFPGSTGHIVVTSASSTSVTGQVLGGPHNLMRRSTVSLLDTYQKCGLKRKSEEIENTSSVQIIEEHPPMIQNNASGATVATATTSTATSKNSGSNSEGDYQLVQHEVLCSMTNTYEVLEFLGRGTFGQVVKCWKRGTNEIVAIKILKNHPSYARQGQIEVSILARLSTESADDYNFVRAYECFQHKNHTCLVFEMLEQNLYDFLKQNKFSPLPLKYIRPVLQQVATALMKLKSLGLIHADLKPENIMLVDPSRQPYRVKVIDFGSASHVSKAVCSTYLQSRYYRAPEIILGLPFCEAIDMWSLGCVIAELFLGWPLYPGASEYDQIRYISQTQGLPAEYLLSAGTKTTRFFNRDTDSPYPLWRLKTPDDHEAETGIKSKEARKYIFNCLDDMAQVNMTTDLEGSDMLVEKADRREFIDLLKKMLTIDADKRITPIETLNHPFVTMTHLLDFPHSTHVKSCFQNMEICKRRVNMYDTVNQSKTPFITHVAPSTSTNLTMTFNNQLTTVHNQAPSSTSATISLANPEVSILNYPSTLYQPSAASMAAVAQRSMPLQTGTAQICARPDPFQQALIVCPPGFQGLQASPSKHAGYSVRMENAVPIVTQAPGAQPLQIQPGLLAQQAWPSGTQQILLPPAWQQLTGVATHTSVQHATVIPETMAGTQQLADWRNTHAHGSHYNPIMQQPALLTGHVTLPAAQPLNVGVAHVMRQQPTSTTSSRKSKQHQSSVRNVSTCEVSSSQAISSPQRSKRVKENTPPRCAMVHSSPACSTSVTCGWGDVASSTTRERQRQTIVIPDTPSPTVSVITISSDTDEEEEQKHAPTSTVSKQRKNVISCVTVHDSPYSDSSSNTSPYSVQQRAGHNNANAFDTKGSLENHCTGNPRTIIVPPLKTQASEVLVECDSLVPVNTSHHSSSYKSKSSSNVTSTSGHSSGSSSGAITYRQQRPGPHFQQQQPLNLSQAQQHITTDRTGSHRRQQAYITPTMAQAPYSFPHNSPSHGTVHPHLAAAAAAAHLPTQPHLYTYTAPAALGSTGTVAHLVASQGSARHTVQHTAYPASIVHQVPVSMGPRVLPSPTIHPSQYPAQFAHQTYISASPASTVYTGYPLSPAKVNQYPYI
TIE2, sequence (Q02763 23-1124): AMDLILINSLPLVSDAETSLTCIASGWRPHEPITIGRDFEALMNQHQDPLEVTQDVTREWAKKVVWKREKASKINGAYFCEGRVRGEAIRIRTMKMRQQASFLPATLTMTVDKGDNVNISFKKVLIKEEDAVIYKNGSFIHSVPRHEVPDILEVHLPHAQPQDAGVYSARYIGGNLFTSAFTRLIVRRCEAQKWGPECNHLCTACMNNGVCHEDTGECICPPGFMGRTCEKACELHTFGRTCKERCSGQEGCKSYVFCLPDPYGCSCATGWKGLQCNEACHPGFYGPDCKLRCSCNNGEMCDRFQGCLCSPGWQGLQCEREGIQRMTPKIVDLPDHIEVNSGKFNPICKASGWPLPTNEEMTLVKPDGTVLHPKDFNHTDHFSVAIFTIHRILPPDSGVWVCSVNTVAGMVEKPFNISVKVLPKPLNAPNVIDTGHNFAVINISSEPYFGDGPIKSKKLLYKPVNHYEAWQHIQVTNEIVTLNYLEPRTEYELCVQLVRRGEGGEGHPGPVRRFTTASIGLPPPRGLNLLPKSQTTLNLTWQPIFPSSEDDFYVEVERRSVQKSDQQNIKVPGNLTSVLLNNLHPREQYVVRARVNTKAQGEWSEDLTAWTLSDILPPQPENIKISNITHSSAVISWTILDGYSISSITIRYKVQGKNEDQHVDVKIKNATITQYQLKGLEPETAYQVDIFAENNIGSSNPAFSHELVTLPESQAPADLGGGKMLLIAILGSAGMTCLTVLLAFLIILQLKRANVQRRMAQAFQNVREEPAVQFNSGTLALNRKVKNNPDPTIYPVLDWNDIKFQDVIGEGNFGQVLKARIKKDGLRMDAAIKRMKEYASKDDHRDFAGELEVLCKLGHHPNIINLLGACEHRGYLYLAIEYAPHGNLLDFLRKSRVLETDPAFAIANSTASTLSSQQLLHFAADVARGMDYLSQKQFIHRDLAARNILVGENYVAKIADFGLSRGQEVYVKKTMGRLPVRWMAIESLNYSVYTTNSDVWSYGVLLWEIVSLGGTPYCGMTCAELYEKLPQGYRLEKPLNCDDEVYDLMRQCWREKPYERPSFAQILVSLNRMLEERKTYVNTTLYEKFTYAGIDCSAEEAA
ERK1, sequence (P27361 whole entry): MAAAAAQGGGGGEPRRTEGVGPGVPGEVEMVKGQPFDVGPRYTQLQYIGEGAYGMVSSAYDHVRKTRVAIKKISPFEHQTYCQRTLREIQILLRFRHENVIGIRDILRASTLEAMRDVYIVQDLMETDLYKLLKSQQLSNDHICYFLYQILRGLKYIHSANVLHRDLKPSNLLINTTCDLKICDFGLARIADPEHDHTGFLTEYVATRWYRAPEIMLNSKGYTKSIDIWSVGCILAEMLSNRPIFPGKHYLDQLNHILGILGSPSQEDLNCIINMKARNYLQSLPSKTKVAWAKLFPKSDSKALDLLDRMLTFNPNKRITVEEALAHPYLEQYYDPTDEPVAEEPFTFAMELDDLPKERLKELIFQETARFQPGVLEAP
p38δ MAPK, sequence (O15264 whole entry): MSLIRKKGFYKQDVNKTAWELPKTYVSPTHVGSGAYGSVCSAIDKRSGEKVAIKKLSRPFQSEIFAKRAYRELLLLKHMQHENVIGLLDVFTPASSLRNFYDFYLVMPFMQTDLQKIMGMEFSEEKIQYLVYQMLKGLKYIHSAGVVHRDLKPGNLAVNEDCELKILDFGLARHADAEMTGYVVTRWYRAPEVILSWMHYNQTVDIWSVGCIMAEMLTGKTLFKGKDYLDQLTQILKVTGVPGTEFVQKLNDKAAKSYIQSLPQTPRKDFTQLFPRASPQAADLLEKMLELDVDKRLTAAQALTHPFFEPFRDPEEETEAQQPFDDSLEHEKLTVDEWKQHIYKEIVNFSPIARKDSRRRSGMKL
RIPK2, sequence (O43353 whole entry): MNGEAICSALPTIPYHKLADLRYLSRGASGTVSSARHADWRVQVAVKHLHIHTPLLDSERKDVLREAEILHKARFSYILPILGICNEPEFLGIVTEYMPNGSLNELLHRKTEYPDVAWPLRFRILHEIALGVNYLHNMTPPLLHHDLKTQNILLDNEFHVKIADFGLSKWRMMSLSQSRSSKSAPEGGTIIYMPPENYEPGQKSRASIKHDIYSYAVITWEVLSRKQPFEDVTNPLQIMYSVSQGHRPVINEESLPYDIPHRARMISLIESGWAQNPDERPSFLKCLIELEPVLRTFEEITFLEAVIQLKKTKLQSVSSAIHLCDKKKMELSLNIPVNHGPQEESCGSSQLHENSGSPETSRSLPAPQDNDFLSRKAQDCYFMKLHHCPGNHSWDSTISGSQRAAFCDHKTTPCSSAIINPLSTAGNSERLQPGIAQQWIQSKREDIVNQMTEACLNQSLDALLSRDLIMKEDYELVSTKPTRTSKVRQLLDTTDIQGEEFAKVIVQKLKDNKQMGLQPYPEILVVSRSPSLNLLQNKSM

`C=CS(=O)(=O)c1ccc(Nc2nc(OCC3CCCCC3)c3nc[nH]c3n2)cc1` [NU6300, 6-(cyclohexylmethoxy)-N-(4-(vinylsulfonyl)phenyl)-9H-purin-2-amine] was tested, and the remaining activity at 1 µM [1] was 122%, the remaining activity at 1 µM [2] was 49% and the remaining activity at 1 µM [3] was 70%. The remaining activity at 1 µM [4] was 61%, the remaining activity at 1 µM [5] was 32% and the remaining activity at 1 µM [6] was 92%. For the same molecule, the remaining activity at 1 µM [7] was 35%, the remaining activity at 1 µM [8] was 86% and the remaining activity at 1 µM [9] was 56%. The remaining activity at 1 µM [10] was 73%.
